Data on 17 compounds can be found in article doi:10.1101/2025.08.20.671340v1 (biorxiv, 2025).

The target of data set [1] is T1, hAChE (human acetylcholinesterase) (Homo sapiens, UniProt P22303). Description: enzyme inhibition assay. It is filed as biochemical.
The next data set in a line: physchem. Conditions: pbs.
For data set [2], the target named is T1, hAChE (human acetylcholinesterase). Nature of the data set: biochemical.
The target is the same in data set [3]. Nature of the data set: enzyme inhibition assay. It is filed as biochemical. The following applies: footnote d not shown: inhibition or residual activity and concentration unknown.

T1 sequence (P22303 32-614): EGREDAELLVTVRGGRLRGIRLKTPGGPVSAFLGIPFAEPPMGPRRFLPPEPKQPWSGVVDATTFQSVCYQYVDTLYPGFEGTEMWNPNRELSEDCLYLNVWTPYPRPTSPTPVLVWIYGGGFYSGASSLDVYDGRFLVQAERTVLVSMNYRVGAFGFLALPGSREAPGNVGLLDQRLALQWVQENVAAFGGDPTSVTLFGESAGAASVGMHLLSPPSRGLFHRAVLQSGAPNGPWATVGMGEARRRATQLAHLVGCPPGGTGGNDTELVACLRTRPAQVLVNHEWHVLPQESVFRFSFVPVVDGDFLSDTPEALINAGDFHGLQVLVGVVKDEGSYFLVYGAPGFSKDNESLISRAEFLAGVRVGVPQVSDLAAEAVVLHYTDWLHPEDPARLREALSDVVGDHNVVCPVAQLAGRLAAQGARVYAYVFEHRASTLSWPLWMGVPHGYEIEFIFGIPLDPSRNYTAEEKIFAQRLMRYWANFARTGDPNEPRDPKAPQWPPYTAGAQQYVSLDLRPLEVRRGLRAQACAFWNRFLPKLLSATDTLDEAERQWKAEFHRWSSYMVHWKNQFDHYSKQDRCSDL

By IC50 is commonly meant the concentration that inhibits the measured activity by half. A word on the half-life: it is the time in which the quantity being followed falls by half. Take `CN(CCC1CCCCCC1)Cc1c[nH]c2c(N(C)C(=O)Sc3nncn3C)cccc12` [compound 22]: in data set [1], half-maximal inhibition (IC50) was put at 21.8 µM. This compound also gave a half-life in the data set “physchem” of approximately 25 days. `CN(CCC1CCCCCC1)Cc1c[nH]c2c(NC(=O)n3ccnc3)cccc12` [compound 33, N-(3-(((2-Cycloheptylethyl)(methyl)amino)methyl)-1H-indol-7-yl)-1H-imidazole-1-carboxamide] registered a 50% inhibitory concentration (IC50) in data set [2] of 17.3 µM. Regarding `CN(CCC1CCCCCC1)Cc1c[nH]c2c(N(C)C(=O)OCC(F)(F)F)cccc12` [compound 7], the “% (footnote d)” value in data set [3] was determined as 51.6 ± 0.8%.

As to `CN(CCC1CCCCCC1)Cc1c[nH]c2c([Te]C(=O)N(C)C)cccc12` [compound 4], the IC50 in data set [1] is 13.2 µM.

Regarding `CN(CCC1CCCCCC1)Cc1c[nH]c2c(N(C)C(=O)n3cnc([N+](=O)[O-])c3)cccc12` [compound 27], the IC50 in data set [1] amounted to 15.9 µM. The same measure, in the same setting: the same measure for `CN(CCC1CCCCCC1)Cc1c[nH]c2c(N(C)C(=O)Oc3c(F)c(F)c(F)c(F)c3F)cccc12` [compound 11]: 0.788 ± 0.176 µM; for `CC[Se]C(=O)N(C)c1cccc2c(CN(C)CCC3CCCCCC3)c[nH]c12` [compound 24]: 30.2 µM. For `CN(CCC1CCCCCC1)Cc1c[nH]c2c(N(C)C(=O)OC(C(F)(F)F)C(F)(F)F)cccc12` [compound 8], the IC50 in data set [1] amounted to 25.8 µM. With `CN(CCC1CCCCCC1)Cc1c[nH]c2c(N(C)C(=O)Oc3ccccc3)cccc12` [compound 10], the concentration for half-maximal inhibition (IC50) in data set [1] came to 21.2 µM. `CN(CCC1CCCCCC1)Cc1c[nH]c2c(N(C)C(=O)On3ccnc3)cccc12` [compound 14] had an IC50 in data set [1] of 24.2 µM. In the data set “physchem”, this compound came in with a half-life of approximately 18 days. Regarding `CN(CCC1CCCCCC1)Cc1c[nH]c2c(N(C)C(=O)OC(C(F)(F)F)(C(F)(F)F)C(F)(F)F)cccc12` [compound 9], in data set [1], the IC50 amounted to 6.7 µM. In data set [1], `CN(CCC1CCCCCC1)Cc1c[nH]c2c(N(C)C(=O)F)cccc12` [compound 6] returned an IC50 of 0.177 ± 0.006 µM. The half-life in “physchem” is approximately 4 days. As to `CN(CCC1CCCCCC1)Cc1c[nH]c2c(SC(=O)N(C)C)cccc12` [compound 2], the IC50 in data set [1] came to 11.1 µM. Regarding `CN(CCC1CCCCCC1)Cc1c[nH]c2c(N(C)C(=O)[Se]c3ccccc3)cccc12` [compound 25], in data set [3], the “% (footnote d)” value is 53.6 ± 2.7%. For the compound `CN(CCC1CCCCCC1)Cc1c[nH]c2c(N(C)C(=O)n3ccnc3)cccc12` [compound 26], the half-inhibitory concentration (IC50) in data set [1] was found to be 47.3 µM. Besides, in the data set “physchem”, the half-life was approximately 14 days. In data set [1], `CN(CCC1CCCCCC1)Cc1c[nH]c2c([Se]C(=O)N(C)C)cccc12` [compound 3] showed a concentration for half-maximal inhibition (IC50) of 9.75 µM.

The compound `CN(CCC1CCCCCC1)Cc1c[nH]c2c(N(C)C(=O)Sc3nnnn3C)cccc12` [compound 23] gave an IC50 in data set [1] of 16.9 µM. In “physchem”, the half-life was approximately 38 days.
